Measurements from PubChem BioAssay AID602211 (Sanford-Burnham Center for Chemical Genomics, 2012).
Activity calls are given as the source filed them.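 Rule for the calls: active = mean IC50 at or below 10 µM; inactive = the rest.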

System: H9c2 cardiomyocytes, H2O2 protection, ATPLite viability, 2 h
Test: protection of H9c2 cardiomyocytes from H2O2 death, dose response, cell-based, ATPLite luminescence, set 2 (AID 602211);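 note: potency is for protection so actives keep ATP signal up against peroxide killing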

Row | Structure (SMILES) | IC50
1 | COC(=O)c1[nH]c2ccccc2c1NC(=O)CNC1CCCCC1 | 8.49 µM
2 | O=C(N/N=C/c1cn(-c2ccccc2)nc1-c1cccnc1)c1ccccc1 | 12.7 µM (inactive)
3 | COC(=O)c1cc(C(=O)OCC(=O)N2c3ccccc3NC(=O)C2(C)C)cc([N+](=O)[O-])c1 | 6.28 µM
4 | COc1ccc(N(CC(=O)N/N=C/c2cccs2)S(=O)(=O)c2ccc(OC)c(OC)c2)cc1 | 10.3 µM (inactive)
5 | COc1cc(/C=N/NC(=O)c2cccnc2)ccc1OS(=O)(=O)c1cc(C)ccc1C | > 79 µM (inactive)
6 | COC(=O)c1ccc(C(NC(=O)OCc2ccccc2)/C(C)=C/[C@@H](C)C(=O)NCc2ccc(OC)c(OC)c2)cc1 (some centres undefined) | > 79 µM (inactive)
7 | COc1cc(/C=N\NC(=O)c2cccnc2)ccc1OC(=O)c1ccccc1Cl | 30 µM (inactive)
8 | COc1cc2c(cc1OC)CN(c1nc(-c3cccnc3)nc3ccccc13)CC2 | 2.93 µM
9 | COc1cc(OC)cc(-c2cc3nc(C)c(CCC(=O)Nc4nc(C)cs4)c(C)n3n2)c1 | 4.8 µM
10 | CC(C)(C)NC(=O)c1cc(NC(=O)c2cccs2)cc(NC(=O)c2cccs2)c1 | 8.4 µM
11 | O=C(N/N=C/c1ccc2c(c1)OCO2)c1ccc(NC(=O)c2ccccc2Cl)cc1 | 8.05 µM
12 | C[C@H](NC(=O)c1nc[nH]c1C(=O)NCC(=O)OCc1ccccc1)c1ccccc1 | 1.6 µM
13 | COc1ccc(C(=O)Nc2cc(C)nn2-c2nc3ccccc3[nH]2)c(OC)c1 | 10.9 µM (inactive)
14 | COc1cc(C(=O)N/N=C/c2ccc(OC(=O)c3ccccc3Cl)cc2)ccc1O | > 79 µM (inactive)
15 | COc1cccc(C(=O)Nc2cc(C)c3c(=O)oc4ccccc4c3n2)c1 | 7.02 µM
16 | COc1cc(C(=O)Nc2ccc(NC(=O)c3ccco3)nc2)cc(OC)c1OC | 25.7 µM (inactive)
17 | COC(=O)/C(=C(O)\C=C\c1ccccc1[N+](=O)[O-])c1nc2ccccc2[nH]1 | 7.96 µM
18 | O=C(NCC(=O)N(Cc1cccs1)C(C(=O)NC1CCCC1)c1ccco1)c1cccs1 (centres undefined) | 6.37 µM
19 | CC(C)c1cc(N2CCN(C(=O)c3ccco3)CC2)n2c(nc3ccccc32)c1C#N | 44.8 µM (inactive)
20 | O=C(c1cc(=O)[nH]c2ccccc12)N1CCN(S(=O)(=O)c2ccc(Cl)cc2)CC1 | 1.1 µM
21 | COCCn1c(=NC(=O)c2nc3ccccc3s2)sc2cc(S(C)(=O)=O)ccc21 | 1.4 µM
22 | Cc1nn2c(-c3cccc(NC(=O)c4ccco4)c3)nnc2c2ccccc12 | 1.66 µM
23 | CN(C(=O)c1sc2nc(N3CCOCC3)c3c(c2c1N)CCCC3)c1ccccc1 | 2.64 µM
24 | O=c1c2ccccc2nc2c3ccccc3c(NCCO)nn12 | 20.3 µM (inactive)

Row | Structure (SMILES) | IC50
25 | NC(=O)c1ccc(Nc2nnc(-c3ccc(O)cc3)c3ccccc23)cc1 | 14.7 µM (inactive)
26 | O=C(N/N=C/c1ccccn1)c1cc(-c2cccc3ccccc23)n[nH]1 | 6.66 µM
27 | CCOC(=O)C1CCN(c2cc3c(cc2NC(=O)c2ccc(F)cc2)n(C)c(=O)n3C)CC1 | 25.8 µM (inactive)
28 | CC(=O)c1cccc(Nc2nc3ccccc3n3cnnc23)c1 | 3.87 µM
29 | NC(=O)c1nsc(C(=O)N(c2ccccc2F)C(C(=O)NCc2ccccc2)c2ccc(O)cc2)c1N (centres undefined) | 0.75 µM
30 | CCn1c(O)c(/C=N/N=C2CCCCC2)c2cc(C3=NNC(=O)CC3)ccc21 | 9.96 µM
31 | COc1cc(/C=C/c2nnc3c4ccccc4ncn23)cc(OC)c1OC | 4.47 µM
32 | O=C(NCC1CCCO1)C(c1ccc(F)cc1)N(C(=O)Cn1nnc(-c2ccc(F)cc2)n1)c1cccc(O)c1 (centres undefined) | 4.48 µM
33 | c1ccc(N2CCOCC2)c(Nc2nc3ccccc3n3cnnc23)c1 | 5.28 µM
34 | COc1ccc(N/C=C(\C#N)c2nc3ccccc3n2C)c(OC)c1 | 3.73 µM
35 | COc1ccc(CCn2c(=O)c3cccnc3n(Cc3ccc([N+](=O)[O-])cc3)c2=O)cc1OC | 1.22 µM
36 | CCOC(=O)c1nc(Nc2ccc(C(=O)OC)cc2)c2ccccc2n1 | 6.89 µM
37 | O=C/C(=C\Nc1ccccn1)c1nc2cc(Cl)ccc2o1 | 9.92 µM
38 | CCOCc1c(C(=O)NC2=Nc3ccccc3NC(CC)=C2C(=O)OCC)oc2ccccc12 | > 79 µM (inactive)
39 | COC(=O)c1cc2ccccn2c2c(C(=O)OC)c(C(=O)OC)cc1-2 | 2.25 µM
40 | CCOC(=O)C1=C(C)NC(C)=C(C(=O)OCC)C1C(=O)OCC(=O)NC1CCCCC1 | 3.32 µM
41 | COc1ccnc(Oc2ccccc2)c1C(=O)N/C=N/OCc1ccc(F)cc1Cl | > 79 µM (inactive)
42 | CCOCCCNC(=O)CCC(=O)NNc1nc2ccccc2c2nc(-c3ccccc3)nn12 | 42.6 µM (inactive)
43 | Cc1cc(NC(=O)C2CCCCC2)nc2c1c(=O)oc1ccccc12 | 23.7 µM (inactive)
44 | CC(=O)c1cccc(-c2cnc3c(NC=O)cc(-c4ccc(F)cc4)cn23)c1 | 7.76 µM
45 | COc1ccccc1CN(C(=O)CNC(=O)c1ccco1)C(C(=O)NCC1CCCO1)c1ccccc1 (centres undefined) | 9.67 µM
46 | COc1ccc(-c2cc(C(=O)N(C)Cc3ccccc3F)c3ccccc3n2)cc1OC | > 79 µM (inactive)
47 | COc1cc2c(C#CCCO)c(-c3ccsc3)oc(=O)c2cc1OC | 2.04 µM
48 | Cc1nn(C)cc1C(C(=O)NC1CCCCC1)N(C(=O)Cc1cccs1)c1ccc(Cl)cc1 (centres undefined) | 8.18 µM

Row | Structure (SMILES) | IC50
49 | COc1ccc(-c2nnc(-c3cc(OC)c(OC)c(OC)c3)o2)cc1OC | 43.9 µM (inactive)
50 | COc1cccc(Nc2nc(-c3sc(NC(=O)c4ccco4)nc3C)cs2)c1 | 7.15 µM
51 | CCOc1cc(/C=C(\C#N)C(=O)Nc2ccc(S(N)(=O)=O)cc2)ccc1OCCN1CCOCC1 | 8.4 µM
52 | CCCC(=O)Nc1nc2ccc(NC(=O)c3ccc(Br)o3)cc2s1 | 15.2 µM (inactive)
53 | O=C(c1cc2nc(-c3ccccc3)cc(-c3ccccc3)n2n1)N1CCN(C(=O)c2ccco2)CC1 | 1.25 µM
54 | O=C(CNC(=O)c1[nH]cnc1C(=O)NC(c1ccccc1)c1ccccc1)OCc1ccccc1 | 10.1 µM (inactive)
55 | COc1cc2nc(C3CCC3)nc(N3CCN(c4ccccn4)CC3)c2cc1OC | > 79 µM (inactive)
56 | CCOC(=O)C(Cc1ccc(NC(=O)/C(=C/c2ccc(OC(C)=O)cc2)NC(C)=O)cc1)N1C(=O)c2ccccc2C1=O (centres undefined) | 2.78 µM
57 | C[C@H](CO)N1C[C@H](C)[C@@H](CN(C)S(=O)(=O)c2cccs2)Oc2ccc(NC(=O)Nc3ccccc3)cc2C1=O | 16 µM (inactive)
58 | COc1ccc(/C=N/NC(=O)c2cc(-c3ccc4c(c3)OCO4)n[nH]2)cc1OC | 7.49 µM
59 | Cc1nn(-c2ccccc2)c(N2CCCC2)c1/C=N/NC(=O)c1cc(-c2ccccn2)nc2ccccc12 | 7.63 µM
60 | Nc1nonc1-n1nnc(C(=O)N/N=C/c2ccccn2)c1CNc1ccccc1 | 16.3 µM (inactive)
61 | C[C@@H]1CN([C@H](C)CO)S(=O)(=O)c2ccc(C#Cc3ccccc3F)cc2O[C@H]1CN(C)C(=O)c1ccc2c(c1)OCO2 | > 79 µM (inactive)
62 | COc1nc(N/N=C/c2cc3c(cc2Br)OCO3)nc(N2CCOCC2)n1 | 11.9 µM (inactive)
63 | CCCCNC(=O)c1cn(-c2ccc(OCC)cc2)c(=O)c2cc(OC)c(OC)cc12 | > 79 µM (inactive)
64 | CCOC(=O)C1=C(COC(=O)/C=C/c2ccc(F)cc2)NC(=O)NC1C (centres undefined) | 5.54 µM
65 | CCN(CC(=O)Nc1ccc(OC)cc1)C(=O)c1cc(-c2cccs2)nn1-c1ccccc1 | 2.06 µM
66 | CC(=O)Nc1cc(-c2ccc(C(=O)NC3CC3)cc2)cn2c(-c3cccc(C(C)=O)c3)cnc12 | 9.83 µM
67 | CC(C)OCCCNC(=O)CCC(=O)NNc1nc2ccccc2c2nc(-c3ccccc3)nn12 | 19.8 µM (inactive)
68 | COc1cc(-c2cc3nc(NCCOc4ccccc4)ccn3n2)cc(OC)c1OC | 7.16 µM
69 | COc1ccc(NC(=O)c2cc(-c3ccc(OC)c(OC)c3)nc3ccccc23)c(OC)c1 | 8.09 µM
70 | NC(=O)c1nsc(C(=O)N(CCc2ccccc2)C(C(=O)NC2CCCC2)c2ccco2)c1N (centres undefined) | 11.3 µM (inactive)
71 | Cc1cccc(NC(=O)c2nc[nH]c2C(=O)NCCCCNC(=O)c2[nH]cnc2C(=O)Nc2cccc(C)c2)c1 | 1.39 µM
72 | CN(C)S(=O)(=O)c1ccc2[nH]cc(/C=C/c3nc4ccccc4c(=O)n3-c3ccccc3)c2c1 | 1.26 µM

Row | Structure (SMILES) | IC50
73 | Cn1c(=O)[nH]c(=O)c2c1nc(Br)n2CC(O)COc1ccc(Cl)cc1 (centres undefined) | 2.44 µM
74 | COc1cccc(NC(=O)c2oc3ccc(S(=O)(=O)N4CCOCC4)cc3c2C)c1 | 1.98 µM
75 | O=C(Nc1ccc2c(c1)OCO2)c1cnn2c(C(F)(F)F)cc(-c3ccco3)nc12 | 2.58 µM
76 | COc1cc(NC(=O)c2cc3nc(-c4ccccc4)cc(-c4ccccc4)n3n2)cc(OC)c1OC | 3.87 µM
77 | COc1cc(C(=O)Nc2ccc(NC(=O)c3cccc(Cl)c3)nc2)cc(OC)c1OC | 2.96 µM
78 | CC(C)(C)C(=O)Nc1ccc(C(=O)N/N=C/c2ccccc2OC(=O)c2ccccc2)cc1 | 6.72 µM
79 | CCOC(=O)N1CCN(C(=O)CSc2nc3ccccc3c(=O)n2-c2ccccc2)CC1 | 18.8 µM (inactive)
80 | O=c1[nH]c(CSc2nnc(-c3cccnc3)n2C2CCCCC2)nc2ccccc12 | 48.2 µM (inactive)
81 | COc1cccc(-c2cnc3c(NC(C)=O)cc(-c4cc(OC)c(OC)c(OC)c4)cn23)c1 | 3.27 µM
82 | Cc1ccc(-n2cc(-c3ccccc3)c3c(N4CCOCC4)ncnc32)cc1 | 5.98 µM
83 | CCOCCn1ccc2c(OCC(=O)Nc3cc(OC)ccc3OC)cccc2c1=O | 5.23 µM
84 | COc1ccc(Nc2nc(C(=O)N3CCc4cc(OC)c(OC)cc4C3)cs2)cc1 | 4.29 µM
85 | CC(C)CCN(C(=O)CNC(=O)c1ccco1)C(C(=O)NC1CCCCC1)c1ccco1 (centres undefined) | 13.4 µM (inactive)
86 | CC(=O)Nc1cc(-c2ccc(C(=O)N3CCOCC3)cc2)cn2c(-c3ccc(C(C)=O)cc3)cnc12 | > 79 µM (inactive)
87 | O=C(N/N=C/c1ccc(-c2cccc([N+](=O)[O-])c2)o1)c1ccc([N+](=O)[O-])cc1 | 7 µM
88 | CCOC(=O)c1cc(-c2nnc(-c3cc(OC)c(OC)c(OC)c3)o2)c(C)nc1C | 2.25 µM
89 | COc1cc(Nc2nc3ccccc3n3nnnc23)cc(OC)c1OC | 1.38 µM
90 | CCC(C)N1C(=O)S/C(=C/c2ccc3c(c2)n(C)c(=O)n3C)C1=O (centres undefined) | > 79 µM (inactive)
91 | CC(OC(=O)c1cc(-c2cccnc2)nc2ccccc12)C(=O)Nc1ccc2ccccc2c1 (centres undefined) | 5.97 µM
92 | COc1cc(-c2cc(NC(C)=O)c3ncc(-c4ccc(F)cc4)n3c2)cc(OC)c1OC | > 79 µM (inactive)
93 | C[C@H](NC(=O)c1nc[nH]c1C(=O)NCC(=O)OCc1ccccc1)C(=O)OCc1ccccc1 | 26.2 µM (inactive)
94 | O=C(CN1C(=O)C2CC=CCC2C1=O)Nc1nc(-c2ccc(F)cc2)cs1 (centres undefined) | > 79 µM (inactive)
